The results in this text go back to patent publication US8901120B2, “Substituted N-phenylpyrimidin-2-amine analogs as inhibitors of the Axl kinase” (University of Utah Research Foundation, priority 2011, dated 2014).

The test addresses T1, recombinant human Axl kinase (catalytic domain, amino acids 473-894) (Homo sapiens, UniProt P30530).
T1 construct: catalytic domain, amino acids 473-894; purchased Invitrogen Corporation, Carlsbad, Calif
T1 sequence (P30530 473-894): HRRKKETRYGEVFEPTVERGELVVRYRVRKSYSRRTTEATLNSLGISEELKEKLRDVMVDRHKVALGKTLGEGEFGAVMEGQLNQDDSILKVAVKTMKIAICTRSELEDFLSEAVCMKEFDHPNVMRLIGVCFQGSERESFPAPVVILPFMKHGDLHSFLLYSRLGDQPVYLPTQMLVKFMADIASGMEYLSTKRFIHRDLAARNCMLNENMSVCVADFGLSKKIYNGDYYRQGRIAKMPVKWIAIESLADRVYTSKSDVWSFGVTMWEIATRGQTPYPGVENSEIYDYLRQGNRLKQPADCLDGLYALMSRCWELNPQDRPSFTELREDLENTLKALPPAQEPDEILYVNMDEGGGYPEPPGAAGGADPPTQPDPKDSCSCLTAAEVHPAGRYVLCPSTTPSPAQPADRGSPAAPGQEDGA
In words: Axl kinase activity assay (TR-FRET, fluorescein poly-GT substrate). The test is classed as biochemical. Here is the method: Test compounds were diluted to desired concentrations in kinase reaction buffer (50 mM HEPES pH 7.5, 10 mM MgCl2, 1 mM EGTA, 2 mM DTT, and 0.01% v/v Tween-20) and were briefly incubated with Axl kinase (Invitrogen Corporation, Carlsbad, Calif.). The Axl kinase used was recombinant human Axl kinase (catalytic domain, amino acids 473-894) with a histidine tag. The reaction was initiated by the addition of ATP and fluorescein-labeled poly-GT substrate (poly Glu:Tyr, 4:1 polymer; Invitrogen). Concentration of the various components in the assay (10 μl reaction volume) were: 1% DMSO, 93 ng/ml Axl kinase, 20 μM ATP, and 200 nM fluorescein poly-GT substrate. Following addition of ATP and fluorescein poly-GT substrate, incubation was for 60 min at room temperature, the enzyme reaction is stopped by addition of 10 μl terbium-labeled anti-phosphotyrosine PY20 antibody in EDTA-containing buffer. Final concentration of EDTA and antibody after addition to the reaction is 10 mM and 2 nM, respectively. The terbium conjugated antibody generates a time-resolved FRET signal with the fluorescein molecule (bound to the poly-GT substrate) when the substrate is phosphorylated. After one hour incubation at room temperature, fluorescence was measured with excitation of 320 nm and dual emission of 495 and 520 urn on an EnVision microplate reader (PerkinElmer). Signal is expressed in terms of a TR-FRET ratio (fluorescence intensity at 520 nm to 495 nm).
IC50 values are determined using GraphPad Prism 5 software. The data were entered as an X-Y plot into the software as percent inhibition for each concentration of the drug. The concentration values of the drug were log transformed and the nonlinear regression was carried out using the “sigmoidal dose-response (variable slope)” option within the GraphPad software to model the data and calculate IC50 values.
On the technique in general: In TR-FRET formats the signal depends on donor and acceptor labels being close together.

Where [1] appears, read: 20 μM ATP, 93 ng/ml Axl kinase, 60 min, read-out: IC50 (Axl kinase activity).

Read-outs that look alike come from different tables or passages of the source. Where only a bound is given, the exact number is not on record here.

In general, IC50 refers to the concentration needed to halve the response being measured. `CC(=O)Nc1cccc(-c2nc(Nc3ccc(CN4CCN(C)CC4)cc3)ncc2C)c1` [Compound 22]: under setting [1], the IC50 is 2300 nM.

Consider `CN1CCN(Cc2ccc(Nc3ncc(Cl)c(Nc4ccc(F)cc4S(=O)(=O)N4CCOCC4)n3)cc2)CC1` [Compound 10], for which the IC50 under setting [1] turned out to be 240 nM.

Consider `Cc1cnc(Nc2ccc(CN3CCN(C)CC3)cc2)nc1Nc1ccc(F)c(Cl)c1` [Compound 30], for which the IC50 under setting [1] was found to be 62700 nM.

For the compound `CN1CCN(Cc2ccc(Nc3ncc(Cl)c(-c4ccc(F)cc4S(=O)(=O)N(C)C)n3)cc2)CC1` [Compound 8], under setting [1], the IC50 was found to be 99 nM.

For the compound `CN1CCN(Cc2ccc(Nc3ncc(C(F)(F)F)c(Nc4ccccc4C(=O)N(C)C)n3)cc2)CC1` [Compound 31], the IC50 under setting [1] is above 100000 nM.

Regarding `CN1CCN(Cc2ccc(Nc3ncc(Cl)c(Nc4ccc(Cl)cc4S(=O)(=O)N4CCCC4)n3)cc2)CC1` [Compound 15], under setting [1], the half-maximal inhibitory concentration (IC50) came out at 1080 nM.

Consider `Cc1ccc(-c2nc(Nc3ccc(CN4CCN(C)CC4)cc3)ncc2C)cc1C#N` [Compound 20], for which the half-maximal inhibitory concentration (IC50) under setting [1] amounted to 1830 nM.

With `Cc1cnc(Nc2ccc(CN3CCN(C)CC3)cc2)nc1-c1cccc(OC(F)(F)F)c1` [Compound 25], the IC50 under setting [1] came out at 3300 nM.

Consider `Cc1cnc(Nc2ccc(CN3CCN(C)CC3)cc2)nc1-c1ccc(F)cc1S(=O)(=O)N1CCCC1` [Compound 24], for which the IC50 under setting [1] turned out to be 2930 nM.

For the compound `CN1CCN(Cc2ccc(Nc3ncc(C4CC4)c(-c4ccc(F)c(Cl)c4)n3)cc2)CC1` [Compound 26], under setting [1], the IC50 worked out at 3350 nM.

Regarding `Cc1cnc(Nc2ccc(CN3CCN(C)CC3)cc2)nc1-c1ccc(F)cc1` [Compound 21], the IC50 under setting [1] turned out to be 1860 nM.

Consider `CN1CCN(Cc2ccc(Nc3ncc(Cl)c(Nc4ccccc4S(=O)(=O)N4CCCC4)n3)cc2)CC1` [5-chloro-N2-(4-((4-methylpiperazin-1-yl)methyl)phenyl)-N4-(2-(pyrrolidin-1-ylsulfonyl)phenyl)pyrimidine-2,4-diamine], for which the IC50 (tested in triplicate, FIG. 4A, read-out: IC50, inhibition of Axl activity) is around 20 nM.

Take `Cc1cnc(Nc2ccc(CN3CCN(C)CC3)cc2)nc1-c1cccc(S(C)(=O)=O)c1` [Compound 23]: the IC50 under setting [1] worked out at 2910 nM.

As for `Cc1cnc(Nc2ccc(CN3CCN(C)CC3)cc2)nc1-c1cc(Cl)cc(C(F)(F)F)c1` [Compound 28], the IC50 under setting [1] stood at 5140 nM.

Take `COc1cccc(-c2nc(Nc3ccc(CN4CCN(C)CC4)cc3)ncc2C)c1` [Compound 19]: the half-maximal inhibitory concentration (IC50) under setting [1] is 1610 nM.

Turning to `Cc1cnc(Nc2ccc(CN3CCN(C)CC3)cc2)nc1Oc1ccc(F)c(Cl)c1` [Compound 18], the IC50 under setting [1] turned out to be 1400 nM.

For the compound `CN1CCN(Cc2ccc(Nc3ncc(Cl)c(Nc4ccc(O)cc4S(=O)(=O)N4CCCC4)n3)cc2)CC1` [Compound 17], the IC50 under setting [1] came to 1310 nM.

As for `CN1CCN(Cc2ccc(Nc3ncc(F)c(-c4ccc(F)cc4S(=O)(=O)N4CCCC4)n3)cc2)CC1` [Compound 16], under setting [1], the IC50 stood at 1140 nM.

On to `CN1CCN(Cc2ccc(Nc3nc(N)cc(-c4ccc(F)c(Cl)c4)n3)cc2)CC1` [Compound 29], for which, under setting [1], the IC50 stood at 57200 nM.

Consider `CN1CCN(Cc2ccc(Nc3ncc(Cl)c(N(C)c4ccc(F)cc4S(=O)(=O)N4CCCC4)n3)cc2)CC1` [Compound 27], for which the IC50 under setting [1] was found to be 3900 nM.
